# Reference: patent publication US20140286906A1, “USE OF IGF-1 IN THE MODULATION OF TREG CELL ACTIVITY AND THE TREATMENT AND PREVENTION OF AUTOIMMUNE DISORDERS OR DISEASES” (priority 2011, published 2014)
# Columns and labels:
# CD4+CD25+ splenic cells = test: qRT-PCR and microarray gene expression in CD4 CD25 double positive splenic cells; type: cell-based, murine
# Procedure: To further support the effect of IGF-1 on T regulatory function qRT-PCR analysis was performed on CD4 CD25 double positive splenic purified cells in the presence or absence of IGF-1 (FIG. 3). […] IL-10 is a cytokine with a potent anti-inflammatory activity that is produced, among others, by regulatory T cells (Mosser and Zhang, 2008) and its expression is not dependent on Foxp3 expression (Gavin et al., 2007). Foxp3 IL10 expressing cells mainly localize in the intestine and are important regulators of intestine homeostasis. For example, mice with conditional deletion of IL-10 develop spontaneous inflammation of the intestine (Roers et al., 2004). […] Additionally, IL-10 is also important for the maintenance of Foxp3 expression in vivo in mice with colitis (Murai et al., 2009). The inventors performed microarray analysis comparing IGF-1 treated and untreated Tregs. […] An example of these genes is granzyme B, which enables T regulatory cells to actively kill APCs and Teff cells in extreme conditions. These and other mechanisms are believed to lead in vivo to the resolution of the immune response (Tang and Bluestone, 2008). Thus, maintaining the suppressive function after cell expansion was a critical aspect regarding the use of IGF-1 for restoring the balance of effector and regulatory.
# [1] = mouse, in vivo
# CD4+CD25+ cells = test: Annexin V / living dye apoptosis flow cytometry, CD4+CD25+ cells; type: cell-based, murine
# From the text: The effects of IGF-1 on apoptosis can be measured by flow cytometry. By using a combination of a living dye and Annexin V staining it is possible to determine four different cell populations which correspond to non-apoptotic, necrotic, early and late apoptosis.
# (§1) Initially, and in order to characterize the in vitro effects of IGF-1 on the different populations of the […] immune system, murine splenic CD4 positive cells were sorted by FACS based on the expression of CD25. This allows for the separation and enrichment of conventional T cells (CD25 negative) and regulatory T cells (CD25 positive). […] To exclude the possibility that the observed expansion was due to the anti-apoptotic properties of IGF-1, the cells in culture were stained with AnnexinV (a marker of apoptosis) and a vital dye, and then analyzed by flow cytometry.
# EAE = settings: i.v. 600 μg/day for six days (Liu et al. 1997); cited from earlier work
# STZ induced diabetes = test: streptozotocin (STZ) induced autoimmune diabetes, systemic rhIGF-1 delivery; type: in vivo, mice
# From the text: Regarding the functional assay for diabetes a protocol that measures the clearance of a standardized glucose load from the body after intraperitoneal injection was used (intraperitoneal glucose tolerance test, see Heikkinen et al. (2007)).
# Beta-cells sense glucose levels and release insulin to maintain physiologic glucose levels within a relatively narrow range. Destruction of beta-cells by the immune system is correlated with the inability to control glucose levels (measured by the glucose tolerance test). Another way to assess whether IGF-1 stimulates proliferation and/or recruitment of regulatory T cells to the damaged tissues is by determining the number of FOXP3 expressing cells per unit area in the affected tissues by immunohistochemistry.
# Shortly, single cell suspensions are prepared from the […] and spinal cord. The resulting cells are stained with anti-CD4 antibodies and separated using fluorescent-activated cell sorting. RNA is then extracted and purified and serves as a template for a quantitative RT-PCR reaction with Taqman probes. Finally, the relative amount of each mRNA compared to a house-keeping gene (Hprt) is determined.
# An accepted model of experimental autoimmune diabetes in mice is the induction of diabetes by multiple injections of a low dose of streptozotocin (STZ). STZ causes diabetes by direct beta cell cytotoxicity as well as by initiation of T cell-mediated autoimmune attack of β-cells (O'Brian et al., 1996). Using this model the inventors examined if systemic delivery of rhIGF-1 could prevent autoimmune diabetes in the early stages of the disease. […] The inventors therefore addressed the effects of IGF-1 […] and sixty-one days after the treatment was stopped.
# First the inventors examined the ability of CsA to suppress IGF-1 activity in vitro. […] Then the inventors tested whether CsA treatment in vivo could also impair IGF-1 protective effect at early stages of the disease. A GTT was performed three weeks from the first STZ injection.
# [2] = mouse, in vivo; remark: listed apart in the source
# Procedure: The inventors first tested the ability of rhIGF-1 to alter the balance of Treg/CD4 positive cells after five intraperitoneal daily injections (5 μg, FIG. 11).
# [3] = system: CD4+ cells isolated from mesenteric lymph nodes; test: intraperitoneal injection, RT-PCR of CD4+ cells from mesenteric lymph nodes; type: in vivo, mice; settings: five intraperitoneal daily injections (5 μg); RT-PCR after the fifth day; n=30, P=0.0241
# [4] = system: T effector cell proliferation; test: in vitro suppression of T effector cell proliferation by IGF-1 treated Tregs; type: cell-based; settings: antigen presenting cells and soluble anti-CD3; Treg:Teff 1:2 to 1:64
# [5] = system: CD25 negative subset (conventional T cells); test: in vitro expansion of FACS-sorted splenic CD4+CD25- cells; type: cell-based, murine; settings: TCR stimulation with anti-CD3 and anti-CD28 antibodies
# From the text: as §1
# [6] = qRT-PCR, compared to non-treated cultures
substance,measurement,setting,value
Insulin-like growth factor-1 [IGF-1],granzyme B gene expression,"CD4+CD25+ splenic cells; microarray, IGF-1 treated versus untreated Tregs",upregulated
same,Foxp3 mRNA,CD4+CD25+ splenic cells; [6],upregulated from day 1
same,IL-10 mRNA,CD4+CD25+ splenic cells; [6],upregulated but with delayed kinetics
same,tumors at necropsy,[1],never found tumors
same,distribution of Annexin V and living dye stained populations,CD4+CD25+ cells,No difference
same,number of infiltrating T cells and macrophages,EAE,reduction
same,ratio of CD4:Foxp3 positive cells in the spleen,"STZ induced diabetes; IGF-1 treatment, P=0.004",decreased
same,Foxp3 mRNA in pancreatic CD4 positive cells,"STZ induced diabetes; RT-PCR seven weeks after disease induction, beyond treatment",higher expression
same,cell mass and architecture of insulin-producing pancreatic islands (insulin staining),STZ induced diabetes; day ninety-seven after first STZ injection,long-lasting protective effects
same,density of T regulatory cells in pancreas (Foxp3 staining),"STZ induced diabetes; day ninety-seven after first STZ injection, P=0.0159",higher density of T regulatory cells
same,glucose control in untreated (non-diabetic) mice,STZ induced diabetes; mice without STZ,no effect
same,glucose homeostasis (GTT AUC) after end of treatment,"STZ induced diabetes; nice and sixty-one days after treatment was stopped, P37d=0.016, P89d=0.036",long-term improved glucose homeostasis
same,blood glucose in glucose tolerance test (GTT),"STZ induced diabetes; three weeks from first STZ injection, four weeks after pump implantation",lower glucose levels
same,hIGF-1 in peripheral blood,[2],Elevated levels
same,increase of IGF-1 levels determined by ELISA,[2],40 and 4
same,expression of Foxp3 in CD4+ cells from mesenteric lymph nodes,[3],increased expression
same,ability of Treg cells to suppress T effector cell proliferation after treatment,[4],retain their ability to suppress T effector cell proliferation
same,in vitro expansion of CD25 negative subset,[5],no reproducible effect
